Values quoted from earlier work, collected in paper PMC8513935.

Assays:
[1] = log P octanol/water from commercial databases, averaged (the ESI); conditions: Octanol (wet), 25 C
[2] = experimental, compiled by the authors from the literature (the ESI cites the sources)
[3] = derived by the authors as gas->solvent minus gas->water (a hypothetical dry solvent; the ESI), not a two-phase measurement

Row | log K of transfer, water to solvent [1] [log10 K] | log K of transfer, gas to solvent ([2]; Butan-1-ol, 25 C) [log10 K] | log K of transfer, gas to solvent ([2]; Butan-2-ol, 25 C) [log10 K] | log K of transfer, gas to solvent ([2]; Butanone, 25 C) [log10 K] | log K of transfer, gas to solvent ([2]; CCl4, 25 C) [log10 K] | log K of transfer, gas to solvent ([2]; Hexadecane, 25 C) [log10 K] | log K of transfer, gas to solvent ([2]; Methanol, 25 C) [log10 K] | log K of transfer, gas to solvent ([2]; Propan-2-ol, 25 C) [log10 K] | log K of transfer, gas to solvent ([2]; Water, 25 C) [log10 K] | log K of transfer, water to solvent ([3]; Butan-1-ol, 25 C) [log10 K] | log K of transfer, water to solvent ([3]; Butan-2-ol, 25 C) [log10 K] | log K of transfer, water to solvent ([3]; Butanone, 25 C) [log10 K] | log K of transfer, water to solvent ([3]; CCl4, 25 C) [log10 K] | log K of transfer, water to solvent ([3]; Hexadecane, 25 C) [log10 K] | log K of transfer, water to solvent ([3]; Methanol, 25 C) [log10 K] | log K of transfer, water to solvent ([3]; Propan-2-ol, 25 C) [log10 K] | SMILES | log K of transfer, gas to solvent ([2]; Octan-1-ol, 25 C) [log10 K] | log K of transfer, water to solvent ([3]; Octan-1-ol(dry), 25 C) [log10 K] | log K of transfer, gas to solvent ([2]; Chloroform, 25 C) [log10 K] | log K of transfer, gas to solvent ([2]; Hexane, 25 C) [log10 K] | other results
1 | 2.03 | 3.03 | 3.04 | 3.2 | 3.54 | 2.95 | 2.89 | 2.95 | 0.9 | 2.13 | 2.14 | 2.3 | 2.64 | 2.05 | 1.99 | 2.05 | CCCOCCC | 2.97 | 2.07 |  |  | log K of transfer, gas to solvent ([2]; 2-Methylpropan-1-ol, 25 C): 3.06 log10 K; log K of transfer, gas to solvent ([2]; 2-Methylpropan-2-ol, 25 C): 3.03 log10 K; log K of transfer, gas to solvent ([2]; Dichloromethane, 25 C): 3.68 log10 K; log K of transfer, gas to solvent ([2]; Hexan-1-ol, 25 C): 3.02 log10 K; log K of transfer, gas to solvent ([2]; Perfluoroalkane, 25 C): 2.08 log10 K; log K of transfer, water to solvent ([3]; 2-Methylpropan-1-ol, 25 C): 2.16 log10 K; log K of transfer, water to solvent ([3]; 2-Methylpropan-2-ol, 25 C): 2.13 log10 K; log K of transfer, water to solvent ([3]; Dichloromethane, 25 C): 2.78 log10 K; log K of transfer, water to solvent ([3]; Hexan-1-ol, 25 C): 2.12 log10 K; log K of transfer, water to solvent ([3]; Perfluoroalkane, 25 C): 1.18 log10 K
2 | 1.45 | 3.56 | 3.53 | 3.05 | 3.54 | 3.04 | 3.84 | 3.31 | 2.36 | 1.2 | 1.17 | 0.69 | 1.18 | 0.68 | 1.48 | 0.95 | CCN(CC)CC |  |  | 4.22 | 3.29 | log K of transfer, gas to solvent ([2]; 1,2-Dichloroethane, 25 C): 3.21 log10 K; log K of transfer, gas to solvent ([2]; Chlorobenzene, 25 C): 3.35 log10 K; log K of transfer, gas to solvent ([2]; Cyclohexanone, 25 C): 3.01 log10 K; log K of transfer, gas to solvent ([2]; Diethyl Ether, 25 C): 3.26 log10 K; log K of transfer, gas to solvent ([2]; Ethanol, 25 C): 3.57 log10 K; log K of transfer, gas to solvent ([2]; Pentan-1-ol, 25 C): 3.64 log10 K; log K of transfer, gas to solvent ([2]; Propan-1-ol, 25 C): 3.5 log10 K; log K of transfer, gas to solvent ([2]; Propanone, 25 C): 2.97 log10 K; log K of transfer, gas to solvent ([2]; Tetrahydrofuran, 25 C): 3.37 log10 K; log K of transfer, water to solvent ([3]; 1,2-Dichloroethane, 25 C): 0.85 log10 K; log K of transfer, water to solvent ([3]; Acetone, 25 C): 0.61 log10 K; log K of transfer, water to solvent ([3]; Chlorobenzene, 25 C): 0.99 log10 K; log K of transfer, water to solvent ([3]; Chloroform, 25 C): 1.86 log10 K; log K of transfer, water to solvent ([3]; Cyclohexanone, 25 C): 0.654 log10 K; log K of transfer, water to solvent ([3]; Diethyl Ether, 25 C): 0.9 log10 K; log K of transfer, water to solvent ([3]; Ethanol, 25 C): 1.21 log10 K; log K of transfer, water to solvent ([3]; Hexane, 25 C): 0.93 log10 K; log K of transfer, water to solvent ([3]; Pentan-1-ol, 25 C): 1.28 log10 K; log K of transfer, water to solvent ([3]; Propan-1-ol, 25 C): 1.14 log10 K; log K of transfer, water to solvent ([3]; Tetrahydrofuran, 25 C): 1.01 log10 K

Row | SMILES | log K of transfer, water to solvent [1] [log10 K] | log K of transfer, gas to solvent ([2]; Butan-1-ol, 25 C) [log10 K] | log K of transfer, gas to solvent ([2]; Butan-2-ol, 25 C) [log10 K] | log K of transfer, gas to solvent ([2]; Butanone, 25 C) [log10 K] | log K of transfer, gas to solvent ([2]; CCl4, 25 C) [log10 K] | log K of transfer, gas to solvent ([2]; Hexadecane, 25 C) [log10 K] | log K of transfer, gas to solvent ([2]; Methanol, 25 C) [log10 K] | log K of transfer, gas to solvent ([2]; Propan-2-ol, 25 C) [log10 K] | log K of transfer, gas to solvent ([2]; Water, 25 C) [log10 K] | log K of transfer, water to solvent ([3]; Butan-1-ol, 25 C) [log10 K] | log K of transfer, water to solvent ([3]; Butan-2-ol, 25 C) [log10 K] | log K of transfer, water to solvent ([3]; Butanone, 25 C) [log10 K] | log K of transfer, water to solvent ([3]; CCl4, 25 C) [log10 K] | log K of transfer, water to solvent ([3]; Hexadecane, 25 C) [log10 K] | log K of transfer, water to solvent ([3]; Methanol, 25 C) [log10 K] | log K of transfer, water to solvent ([3]; Propan-2-ol, 25 C) [log10 K] | log K of transfer, gas to solvent ([2]; Octan-1-ol, 25 C) [log10 K] | log K of transfer, water to solvent ([3]; Octan-1-ol(dry), 25 C) [log10 K] | log K of transfer, gas to solvent ([2]; Chloroform, 25 C) [log10 K] | log K of transfer, gas to solvent ([2]; Hexane, 25 C) [log10 K] | other results
3 | Clc1cccc(Cl)c1 | 3.6 |  |  |  | 4.55 | 4.41 |  |  | 0.72 |  |  |  | 3.83 | 3.69 |  |  | 4.13 | 3.41 | 4.59 | 4.53 | log K of transfer, water to solvent ([3]; Chloroform, 25 C): 3.87 log10 K; log K of transfer, water to solvent ([3]; Hexane, 25 C): 3.81 log10 K
